Assay results reported in article PMC4300089, “Structure-Guided Design of Selective Epac1 and Epac2 Agonists” (PLoS Biology, 2015).

Tests used:
PKA-Iα = molecular target: T1, PKA-Iα (Homo sapiens, UniProt P10644); experiment: PKA activity assay (coupled spectrophotometric, Kemptide), PKA-Iα; type: biochemical; settings: for EC50: read-out: Kact; for A (PKA activity): PKAIα
T1 construct: made in house
Experimental: The recombinant human PKA catalytic subunit (Cα1) and the four human PKA regulatory subunits (RIα, RIβ, RIIα, RIIβ) were expressed, purified, and characterized as described. […] PKA holoenzymes were formed by mixing the R- and C-subunit at a molar ratio of 1.2:1 and extensive dialysis against 20 mM MOPS (pH 7.0), 150 mM NaCl, 2.5 mM β-mercaptoethanol, supplemented with 1 mM ATP and 10 mM MgCl2 for PKA-I at 4°C overnight. PKA holoenzymes were used at about 20 nM for the activation assay. The apparent activation constants (Kact) were determined by fitting the concentration-dependent activity to a sigmoid dose-response model.

Epac2^fl = molecular target: T2, Epac2^fl (Mus musculus, UniProt Q9EQZ6); experiment: Epac activation assay, full length Epac2; type: biochemical; parameters: made in house; settings: for Rel. kmax: maximal activity relative to cAMP
T2 sequence (Q9EQZ6 1-993 isoform Q9EQZ6-3): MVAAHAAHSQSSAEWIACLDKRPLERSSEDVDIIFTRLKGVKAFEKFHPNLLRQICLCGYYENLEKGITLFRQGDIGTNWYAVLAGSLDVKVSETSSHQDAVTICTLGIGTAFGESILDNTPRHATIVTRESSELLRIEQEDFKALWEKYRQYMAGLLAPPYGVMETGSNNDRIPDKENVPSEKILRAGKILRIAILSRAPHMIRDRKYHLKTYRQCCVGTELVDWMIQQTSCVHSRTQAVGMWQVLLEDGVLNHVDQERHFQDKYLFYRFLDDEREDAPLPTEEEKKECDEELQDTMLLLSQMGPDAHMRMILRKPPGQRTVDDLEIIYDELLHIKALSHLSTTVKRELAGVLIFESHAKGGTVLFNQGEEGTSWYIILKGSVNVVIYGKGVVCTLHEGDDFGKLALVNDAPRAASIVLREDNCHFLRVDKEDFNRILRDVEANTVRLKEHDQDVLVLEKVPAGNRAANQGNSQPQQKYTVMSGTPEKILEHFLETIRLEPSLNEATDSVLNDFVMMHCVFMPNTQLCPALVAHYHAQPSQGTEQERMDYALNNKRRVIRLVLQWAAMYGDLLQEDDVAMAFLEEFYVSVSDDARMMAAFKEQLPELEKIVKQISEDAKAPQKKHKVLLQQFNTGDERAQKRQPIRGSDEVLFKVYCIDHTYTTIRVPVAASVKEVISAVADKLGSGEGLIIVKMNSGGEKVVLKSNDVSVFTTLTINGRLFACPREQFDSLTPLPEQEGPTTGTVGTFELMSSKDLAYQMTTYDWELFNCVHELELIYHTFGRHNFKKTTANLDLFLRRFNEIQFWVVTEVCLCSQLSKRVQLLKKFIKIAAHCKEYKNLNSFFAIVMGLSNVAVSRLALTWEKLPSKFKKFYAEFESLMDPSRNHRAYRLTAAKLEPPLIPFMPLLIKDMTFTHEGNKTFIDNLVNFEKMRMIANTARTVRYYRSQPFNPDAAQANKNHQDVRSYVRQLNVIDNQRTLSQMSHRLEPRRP
Experimental: Murine Epac2 was used as all previous structural studies were performed with it.
The activity of Epac was determined by a fluorescence assay. […] The fluorescence intensity of Rap1B•mGDP is approximately twice that of free mGDP, and thus, nucleotide exchange can be observed as a decay in fluorescence upon the addition of excess unlabeled GDP.

T1 sequence (P10644 whole entry): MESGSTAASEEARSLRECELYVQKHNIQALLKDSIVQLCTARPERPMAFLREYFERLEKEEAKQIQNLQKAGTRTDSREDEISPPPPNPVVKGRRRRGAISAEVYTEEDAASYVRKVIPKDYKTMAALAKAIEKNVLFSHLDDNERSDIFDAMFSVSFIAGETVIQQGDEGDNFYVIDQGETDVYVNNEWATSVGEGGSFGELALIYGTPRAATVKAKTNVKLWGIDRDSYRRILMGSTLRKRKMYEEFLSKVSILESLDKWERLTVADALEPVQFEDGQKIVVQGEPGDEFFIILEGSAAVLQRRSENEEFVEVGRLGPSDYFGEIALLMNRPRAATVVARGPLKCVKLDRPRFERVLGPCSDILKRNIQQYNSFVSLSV

## COC1C2OP(=O)(O)OCC2OC1n1c(Sc2ccc(Cl)cc2)nc2c(N)ncnc21 [D-007, 8-pCPT-2′-O-Me-cAMP, reference compound]
PKA-Iα; PKA-Iα
  EC50: 14 µM
PKA-Iα; concentration 1 μM
  A (PKA activity): 3.924 U/mg
PKA-Iα; concentration 1.00E+01 μM
  A (PKA activity): 1.06E+01 U/mg
PKA-Iα; concentration 1.00E+02 μM
  A (PKA activity): 1.58E+01 U/mg
PKA-Iα; concentration 1.00E-01 μM
  A (PKA activity): 3.7714 U/mg
PKA-Iα; concentration 1.00E-03 μM
  A (PKA activity): 3.6515 U/mg
PKA-Iα; concentration 1.00E-05 μM
  A (PKA activity): 2.6923 U/mg
PKA-Iα; concentration 2.50E+01 μM
  A (PKA activity): 1.22E+01 U/mg
PKA-Iα; concentration 2.50E+02 μM
  A (PKA activity): 1.83E+01 U/mg
PKA-Iα; concentration 5.00E+02 μM
  A (PKA activity): 1.79E+01 U/mg
PKA-Iα; concentration […]
  A (PKA activity): 7.9352 U/mg
Epac2^fl; 0.3 μM compound
  kobs: 1.59e-05 s⁻¹
Epac2^fl; 0.5 μM compound
  kobs: 1.62e-05 s⁻¹
Epac2^fl; 0.8 μM compound
  kobs: 1.75e-05 s⁻¹
Epac2^fl; 1 μM compound
  kobs: 1.95e-05 s⁻¹
Epac2^fl; 2 μM compound
  kobs: 2.18e-05 s⁻¹
Epac2^fl; 3 μM compound
  kobs: 2.37e-05 s⁻¹
Epac2^fl; 4 μM compound
  kobs: 2.69e-05 s⁻¹
Epac2^fl; 5 μM compound
  kobs: 2.86e-05 s⁻¹
Epac2^fl; 6 μM compound
  kobs: 3.39e-05 s⁻¹
Epac2^fl; 7 μM compound
  kobs: 3.51e-05 s⁻¹
Epac2^fl; 8 μM compound
  kobs: 3.74e-05 s⁻¹
Epac2^fl; 10 μM compound
  kobs: 4.22e-05 s⁻¹
Epac2^fl; 20 μM compound
  kobs: 5.69e-05 s⁻¹
Epac2^fl; 30 μM compound
  kobs: 7e-05 s⁻¹
Epac2^fl; 40 μM compound
  kobs: 7.51e-05 s⁻¹
Epac2^fl; 50 μM compound
  kobs: 7.76e-05 s⁻¹
Epac2^fl; 60 μM compound
  kobs: 8.43e-05 s⁻¹
Epac2^fl; 70 μM compound
  kobs: 8.92e-05 s⁻¹
Epac2^fl; 80 μM compound
  kobs: 9.01e-05 s⁻¹
Epac2^fl; 100 μM compound
  kobs: 9.57e-05 s⁻¹
Epac2^fl; 200 μM compound
  kobs: 9.52e-05 s⁻¹
Epac2^fl; 400 μM compound
  kobs: 9.57e-05 s⁻¹
Epac2^fl; 600 μM compound
  kobs: 9.06e-05 s⁻¹
Epac2^fl; 800 μM compound
  kobs: 8.29e-05 s⁻¹
Epac2^fl; Epac2
  ability to reach half-maximal cAMP activity: reaches half-maximal cAMP activity with Epac2 only under saturating conditions
Epac2^fl; Epac2^fl
  AC50: 16 µM
  Rel. kmax: 0.4

## Nc1ncnc2c1nc(SCc1ccccc1)n2[C@@H]1O[C@@H]2CO[P@](O)(=S)O[C@H]2[C@H]1O [S-220, Sp-8-BnT-cAMPS]
PKA-Iα; PKA-Iα
  Kact compared to cAMP (times higher): three to eight times higher
  EC50: 0.29 µM
PKA-Iα; concentration 1 μM
  A (PKA activity): 1.97E+01 U/mg
PKA-Iα; concentration 1.00E+01 μM
  A (PKA activity): 2.59E+01 U/mg
PKA-Iα; concentration 1.00E-01 μM
  A (PKA activity): 9.4227 U/mg
PKA-Iα; concentration 1.00E-02 μM
  A (PKA activity): 3.6309 U/mg
PKA-Iα; concentration 1.00E-03 μM
  A (PKA activity): 3.7632 U/mg
PKA-Iα; concentration 1.00E-05 μM
  A (PKA activity): 3.6309 U/mg
PKA-Iα; concentration 2.50E+02 μM
  A (PKA activity): 2.40E+01 U/mg
PKA-Iα; concentration 2.50E-01 μM
  A (PKA activity): 1.33E+01 U/mg
PKA-Iα; concentration 5.00E+01 μM
  A (PKA activity): 2.52E+01 U/mg
Epac2^fl; 0.001 μM compound
  kobs: 1.9e-05 s⁻¹
Epac2^fl; 0.03 μM compound
  kobs: 4.4e-05 s⁻¹
Epac2^fl; 0.04 μM compound
  kobs: 4.9e-05 s⁻¹
Epac2^fl; 0.05 μM compound
  kobs: 5.4e-05 s⁻¹
Epac2^fl; 0.06 μM compound
  kobs: 6e-05 s⁻¹
Epac2^fl; 0.07 μM compound
  kobs: 6.8e-05 s⁻¹
Epac2^fl; 0.08 μM compound
  kobs: 6.9e-05 s⁻¹
Epac2^fl; 0.1 μM compound
  kobs: 9.1e-05 s⁻¹
Epac2^fl; 0.2 μM compound
  kobs: 0.00016 s⁻¹
Epac2^fl; 0.3 μM compound
  kobs: 0.000217 s⁻¹
Epac2^fl; 0.4 μM compound
  kobs: 0.000258 s⁻¹
Epac2^fl; 0.5 μM compound
  kobs: 0.000295 s⁻¹
Epac2^fl; 0.6 μM compound
  kobs: 0.000369 s⁻¹
Epac2^fl; 0.7 μM compound
  kobs: 0.000402 s⁻¹
Epac2^fl; 0.8 μM compound
  kobs: 0.000428 s⁻¹
Epac2^fl; 1 μM compound
  kobs: 0.000509 s⁻¹
Epac2^fl; 2 μM compound
  kobs: 0.000819 s⁻¹
Epac2^fl; 3 μM compound
  kobs: 0.000975 s⁻¹
Epac2^fl; 4 μM compound
  kobs: 0.00102 s⁻¹
Epac2^fl; 5 μM compound
  kobs: 0.0011 s⁻¹
Epac2^fl; 6 μM compound
  kobs: 0.00114 s⁻¹
Epac2^fl; 7 μM compound
  kobs: 0.00118 s⁻¹
Epac2^fl; 8 μM compound
  kobs: 0.00118 s⁻¹
Epac2^fl; 10 μM compound
  kobs: 0.00125 s⁻¹
Epac2^fl; 20 μM compound
  kobs: 0.00149 s⁻¹
Epac2^fl; 30 μM compound
  kobs: 0.00153 s⁻¹
Epac2^fl; 40 μM compound
  kobs: 0.00152 s⁻¹
Epac2^fl; 50 μM compound
  kobs: 0.0015 s⁻¹
Epac2^fl; 60 μM compound
  kobs: 0.00155 s⁻¹
Epac2^fl; 70 μM compound
  kobs: 0.00155 s⁻¹
Epac2^fl; 80 μM compound
  kobs: 0.00152 s⁻¹
Epac2^fl; 100 μM compound
  kobs: 0.0015 s⁻¹
Epac2^fl; Epac2^fl
  AC50: 2.1 µM
  potency relative to cAMP by activation potential (times more potently than cAMP): 200 times
  Rel. kmax: 6.6
